# Experimental data: patent US8865138B2, “Melanin modification compositions and methods of use” (Allergan, Inc., priority 2011, dated 2014)
# System: PGF2 alpha
# Test: Inhibition of prostaglandin F2 alpha levels in UVB-exposed keratinocytes (ELISA)
# Format: cell-based
# Details: UVB-induced human keratinocytes; PGF2 alpha measured by ELISA 24 hours post-treatment; FIG. 1
# Protocol: Human keratinocytes were harvested and exposed to with UVB light to induce PGF2 alpha release. Following exposure to UVB irradiation, the cells were treated with a composition comprising 1% 4-ethoxybenzaldehyde, Indomethacin (positive control) or left untreated (negative control). After 24 hours post-treatment, PGF2 alpha levels were measured by ELISA analysis.
structure (smiles),measurement,value
CCOc1ccc(C=O)cc1 [4-ethoxybenzaldehyde],inhibition of PGF2 alpha,dose-dependent inhibition
